Data on four compounds can be found in DBAASP.

As usually defined, the MIC is the smallest concentration in the dilution series that meets the test's criterion for growth inhibition.

Experiment in all cases: ≥ marks a high value that may be exact or a test limit, other limits are often not marked, values filed in µg/mL are converted to µM
For experiment [1], the system named is Candida albicans NCPF 1467.
In experiment [2] the test system is Staphylococcus aureus NCTC 10788.
The test system of experiment [3] is Escherichia coli NCTC 10418.

In brackets after ≈: the same amount, converted by molar mass. A value given as a limit tells only on which side of the number the result lay.

In the case of `CC[C@H](C)[C@H](NC(=O)[C@H](C)NC(=O)CNC(=O)[C@H](Cc1ccccc1)NC(=O)[C@@H](N)Cc1ccccc1)C(=O)N[C@@H](C)C(=O)N[C@@H](C)C(=O)N[C@@H](C)C(=O)N[C@@H](CC(C)C)C(=O)N1CCC[C@H]1C(=O)N[C@@H](Cc1cnc[nH]1)C(=O)N[C@H](C(=O)N[C@H](C(=O)N[C@@H](CO)C(=O)N[C@@H](C)C(=O)N[C@H](C(=O)N[C@@H](CCCCN)C(=O)N[C@@H](CC(N)=O)C(=O)N[C@@H](C)C(=O)N[C@@H](CC(C)C)C(=O)O)[C@@H](C)CC)[C@@H](C)CC)C(C)C` [FFGAIAAALPHVISAIKNAL], the minimum inhibitory concentration (MIC) in experiment [1] was at least 120 µM; in experiment [2], 16 µM (≈ 32.4 µg/mL).
For `CC[C@H](C)[C@H](NC(=O)[C@H](CC(C)C)NC(=O)[C@H](CO)NC(=O)[C@@H](NC(=O)[C@H](CC(C)C)NC(=O)[C@H](C)NC(=O)[C@@H]1CCCN1C(=O)[C@@H](NC(=O)[C@H](CC(C)C)NC(=O)[C@H](Cc1ccccc1)NC(=O)[C@@H]1CCCN1C(=O)[C@H](CC(C)C)NC(=O)[C@@H](N)Cc1ccccc1)[C@@H](C)CC)[C@@H](C)O)C(=O)N[C@@H](CO)C(=O)N[C@@H](CO)C(=O)N[C@@H](CC(C)C)C(N)=O` [FLPFLIPALTSLISSL] the same measures were at least 150 µM and at least 50 µM.
Regarding `CC[C@H](C)[C@H](NC(=O)[C@H](CO)NC(=O)CNC(=O)CNC(=O)[C@@H](NC(=O)[C@H](CC(C)C)NC(=O)[C@H](CO)NC(=O)[C@@H]1CCCN1C(=O)[C@@H](NC(=O)[C@H](CC(C)C)NC(=O)[C@H](CO)NC(=O)[C@H](CC(C)C)NC(=O)[C@@H](N)Cc1ccccc1)[C@@H](C)CC)C(C)C)C(=O)N[C@@H](CO)C(=O)N[C@@H](C)C(=O)N[C@@H](Cc1ccccc1)C(=O)N[C@@H](CCCCN)C(=O)O` [FLSLIPSLVGGSISAFK], the MIC was at least 160 µM in experiment [1], at least 120 µM in experiment [2] and at least 160 µM in experiment [3].
As for `CC[C@H](C)[C@H](NC(=O)CNC(=O)[C@@H]1CCCN1C(=O)[C@H](CC(C)C)NC(=O)[C@H](C)NC(=O)[C@H](CC(N)=O)NC(=O)[C@H](CCCCN)NC(=O)[C@H](Cc1ccccc1)NC(=O)[C@H](C)NC(=O)[C@H](CO)NC(=O)[C@H](CC(C)C)NC(=O)[C@@H](NC(=O)CN)C(C)C)C(=O)N[C@@H](CCSC)C(=O)N[C@@H](CCCCN)C(=O)N[C@H](C(=O)N[C@H](C(=O)N[C@H](C(N)=O)C(C)C)[C@@H](C)CC)[C@@H](C)CC` [GVLSAFKNALPGIMKIIV], the MIC in experiment [1] was 8.55 µM (≈ 16 µg/mL); in experiment [2], 4.28 µM (≈ 8 µg/mL); in experiment [3], at least 34.2 µM.
